From patent publication US8232059B2, “Method of identifying A. baumannii with OXA-131-like drug resistance in diabetic patients” (priority 2010, dated 2012)
≈ marks a conversion by molar mass, not a printed value.

Tested on: A. baumannii isolates
Assay: MICs (minimum inhibitory concentrations) for susceptibility to known antibiotics, British Society for Antimicrobial Chemotherapy guidelines
Type: cell-based, Acinetobacter baumannii
Conditions: 20 clinical isolates from diabetic patients; for MIC: Acinetobacter baumannii
Source text: All twenty isolates were further tested for MICs (minimum inhibitory concentrations) for susceptibility to several known antibiotics using the British Society for Antimicrobial Chemotherapy guidelines.

Compound	% resistance [%]	No. of resistant isolates	MIC [µg/mL]	susceptibility/resistance of the isolates in words	MIC range [mg/L]
CO[C@H]1/C=C/O[C@@]2(C)Oc3c(C)c(O)c4c(O)c(c(/C=N/N5CCN(C)CC5)c(O)c4c3C2=O)NC(=O)/C(C)=C\C=C\[C@H](C)[C@H](O)[C@@H](C)[C@@H](O)[C@@H](C)[C@H](OC(C)=O)[C@@H]1C [Rifampicin]	80	16	4 to 32 (≈ 4.86 to 38.9 µM)		
CC1(C)S[C@@H]2[C@H](NC(=O)[C@H](N)c3ccccc3)C(=O)N2[C@H]1C(=O)O [Ampicillin]	100	20		highly resistant	
Cc1onc(-c2ccccc2)c1C(=O)N[C@@H]1C(=O)N2[C@@H]1SC(C)(C)[C@@H]2C(=O)O [Oxacillin]	100	20	> 128	highly resistant	
C[C@@H](O)[C@H]1C(=O)N2C(C(=O)O)=C(S[C@@H]3CN[C@H](C(=O)Nc4cccc(C(=O)O)c4)C3)[C@H](C)[C@H]12 [Ertapenem]	100	20	4 to 64 (≈ 8.41 to 135 µM)	highly resistant	
CC1(C)[C@H](C(=O)O)N2C(=O)C[C@H]2S1(=O)=O [Sulbactam]	100	20		highly resistant	
CC1COc2c(N3CCN(C)CC3)c(F)cc3c(=O)c(C(=O)O)cn1c23 (stereo not shown) [Ofloxacin]	70	14	1 to 32 (≈ 2.77 to 88.6 µM)		
O=C(N[C@H](CO)[C@H](O)c1ccc([N+](=O)[O-])cc1)C(Cl)Cl [Chloramphenicol]	100	20	> 128	highly resistant	
CCn1cc(C(=O)O)c(=O)c2ccc(C)nc21 [Nalidixic Acid]	75	15		majority was also resistant	
C[C@@H](O)[C@H]1C(=O)N2C(C(=O)O)=C(SCCN=CN)C[C@H]12 [Imipenem]	0	0	0.25 to 2 (≈ 0.835 to 6.68 µM)		
Colistin	0	0		susceptible	0.25 to 0.5
C[C@@H](O)[C@H]1C(=O)N2C(C(=O)O)=C(S[C@@H]3CN[C@H](C(=O)N(C)C)C3)[C@H](C)[C@H]12 [Meropenem]	20	4	4 to 8 (≈ 10.4 to 20.9 µM)	all but four isolates (which had low-level resistance) were susceptible	
Gentamicin	20	4		majority was also resistant	
CN(C)[C@@H]1C(O)=C(C(N)=O)C(=O)[C@@]2(O)C(O)=C3C(=O)c4c(O)cccc4[C@@](C)(O)[C@H]3C[C@@H]12 [Tetracycline]	100	20			
